Measured values: patent publication US7833939B2, “Herbicide compositions” (Kumiai Chemical Industry Co., Ltd., priority 2002, dated 2010)

Legend:
corn [1] = assay: Herbicidal effect by upland field soil treatment (Application Example 2): phytotoxicity to corn; assay type: in vivo; conditions: 30th day from treatment
Protocol: (§1) Test for Herbicidal Effect by Upland Field Soil Treatment
(§2) An upland field soil was filled in a plastic pot of 11 cm each of length, width and depth. Seeds of corn and velvetleaf (Abutilon theophrasti Medic) were sowed, followed by covering with the same soil. The wettable powder produced in accordance with Formulation 1 was weighed so as to provide active ingredients in a predetermined amount, and was diluted with water and sprayed uniformly on the soil surface using a small sprayer, in an amount of 100 liters per […]. Then, growing was made in a greenhouse, and the herbicidal effect of each wettable powder was examined at the 30th day from the treatment in accordance with the standard shown in Table 15.

[2] = tested on: velvetleaf (Abutilon theophrasti Medic); assay: Herbicidal effect by upland field soil treatment (Application Example 2): velvetleaf; assay type: in vivo; conditions: 30th day from treatment
Protocol: as §1, §2

[3] = tested on: common lambsquarters (Chenopodium album L.); assay: Herbicidal effect by upland field soil treatment (Application Example 1): common lambsquarters; assay type: in vivo; conditions: upland field soil treatment, 30th day from treatment
Protocol: as §1
as §2, with “corn, green foxtail (Setaria viridis)” for “corn”, “common lambsquarters (Chenopodium album L.)” for “velvetleaf (Abutilon theophrasti Medic)”

[4] = tested on: green foxtail (Setaria viridis); assay: Herbicidal effect by upland field soil treatment (Application Example 1): green foxtail; assay type: in vivo; conditions: upland field soil treatment, 30th day from treatment
Protocol: as §1
as §2, with “corn, green foxtail (Setaria viridis)” for “corn”, “common lambsquarters (Chenopodium album L.)” for “velvetleaf (Abutilon theophrasti Medic)”

corn [5] = assay: Herbicidal effect by upland field soil treatment (Application Example 1): phytotoxicity to corn; assay type: in vivo; conditions: upland field soil treatment, 30th day from treatment
Protocol: as §1
as §2, with “corn, green foxtail (Setaria viridis)” for “corn”, “common lambsquarters (Chenopodium album L.)” for “velvetleaf (Abutilon theophrasti Medic)”

Row | SMILES | melting point [°C] | Herbicidal effect Common lambsquarter (Chenopodium album L.) ([3]; 32 g a.i./ha) | Herbicidal effect Green foxtail (Sataria viridis) ([4]; 32 g a.i./ha) | Herbicidal effect Corn (corn [5]; 32 g a.i./ha) | also measured
1 | Cn1nc(C(F)(F)F)c(CS(=O)(=O)C2=NOC(C)(C)C2)c1OC(F)F [Compound 3-188] |  |  |  |  | Corn (corn [1]; 16 g a.i./ha): 0 (Herbicidal effect or phytotoxicity of from 0 to 9%); Corn (corn [1]; 32 g a.i./ha): 0 (Herbicidal effect or phytotoxicity of from 0 to 9%); Velvetleaf (Abutilon theophrasti Medic) ([2]; 16 g a.i./ha): 2 (Herbicidal effect or phytotoxicity of from 20 to 29%); Velvetleaf (Abutilon theophrasti Medic) ([2]; 32 g a.i./ha): 2 (Herbicidal effect or phytotoxicity of from 20 to 29%)
2 | CCNc1nc(Cl)nc(NC(C)C)n1 [Atrazine] |  |  |  |  | Corn (corn [1]; 125 g a.i./ha): 0 (Herbicidal effect or phytotoxicity of from 0 to 9%); Velvetleaf (Abutilon theophrasti Medic) ([2]; 125 g a.i./ha): 1 (Herbicidal effect or phytotoxicity of from 10 to 19%)
3 | CC1(C)CC(S(=O)(=O)Cc2c(C(F)(F)F)nn(C(F)F)c2Cl)=NO1 [Compound 3-0010, 3-(5-chloro-1-difluoromethyl-3-trifluoromethyl-1H-pyrazol-4-ylmethylsulfonyl)-5,5-dimethyl-2-isoxazoline] | 126 to 127 |  |  |  | Herbicidal effect Common lambsquarter (Chenopodium album L.) ([3]; 16 g a.i./ha): 2 (Herbicidal effect or phytotoxicity of from 20 to 29%); Herbicidal effect Green foxtail (Sataria viridis) ([4]; 16 g a.i./ha): 2 (Herbicidal effect or phytotoxicity of from 20 to 29%); Herbicidal effect Corn (corn [5]; 16 g a.i./ha): 0 (Herbicidal effect or phytotoxicity of from 0 to 9%)
4 | CCOc1nn(C)c(C(F)(F)F)c1CS(=O)(=O)C1=NOC(C)(C)C1 [Compound 3-0012, 5,5-dimethyl-3-(3-ethoxy-1-methyl-5-trifluoromethyl-1H-pyrazol-4-ylmethylsulfonyl)-2-isoxazoline] | 124 to 125 |  |  |  | Herbicidal effect Common lambsquarter (Chenopodium album L.) ([3]; 16 g a.i./ha): 1 (Herbicidal effect or phytotoxicity of from 10 to 19%); Herbicidal effect Green foxtail (Sataria viridis) ([4]; 16 g a.i./ha): 2 (Herbicidal effect or phytotoxicity of from 20 to 29%); Herbicidal effect Corn (corn [5]; 16 g a.i./ha): 0 (Herbicidal effect or phytotoxicity of from 0 to 9%)
5 | CCS(=O)(=O)c1c(CS(=O)(=O)C2=NOC(C)(C)C2)c(C(F)(F)F)nn1-c1ccccc1 [Compound 3-0004, 5,5-dimethyl-3-(5-ethylsulfonyl-1-phenyl-3-trifluoromethyl-1H-pyrazol-4-ylmethylsulfonyl)-2-isoxazoline] | 158 to 160 | 2 (Herbicidal effect or phytotoxicity of from 20 to 29%) | 3 (Herbicidal effect or phytotoxicity of from 30 to 39%) | 0 (Herbicidal effect or phytotoxicity of from 0 to 9%) | 
6 | Cn1nc(C(F)(F)F)c(CS(=O)(=O)C2=NOC(C)(C)C2)c1Oc1ccccc1Cl [Compound 3-0014, 3-(5-(2-chlorophenoxy)-1-methyl-3-trifluoromethyl-1H-pyrazol-4-ylmethylsulfonyl)-5,5-dimethyl-2-isoxazoline] | 67 to 70 | 2 (Herbicidal effect or phytotoxicity of from 20 to 29%) | 2 (Herbicidal effect or phytotoxicity of from 20 to 29%) | 0 (Herbicidal effect or phytotoxicity of from 0 to 9%) | 
7 | Cc1onc(C(F)(F)F)c1CS(=O)(=O)C1=NOC(C)(C)C1 [Compound 4-0001, 5,5-dimethyl-3-(5-methyl-3-trifluoromethylisoxazol-4-ylmethylsulfonyl)-2-isoxazoline] | 135 to 136 | 1 (Herbicidal effect or phytotoxicity of from 10 to 19%) | 2 (Herbicidal effect or phytotoxicity of from 20 to 29%) | 0 (Herbicidal effect or phytotoxicity of from 0 to 9%) | 
8 | Cn1nc(C(F)(F)F)c(CS(=O)(=O)C2=NOC(C)(C)C2)c1OC1CCCC1 [Compound 3-0015, 3-(5-cyclopentyloxy-1-methyl-3-trifluoromethyl-1H-pyrazol-4-ylmethylsulfonyl)-5,5-dimethyl-2-isoxazoline] | 113 to 114 | 3 (Herbicidal effect or phytotoxicity of from 30 to 39%) | 3 (Herbicidal effect or phytotoxicity of from 30 to 39%) | 0 (Herbicidal effect or phytotoxicity of from 0 to 9%) | 
